In brackets after ≈: the same amount, converted by molar mass. Like-named read-outs stand apart in the source and are kept apart here.

The subject of one assay is Trichomonas foetus. The assay can be described thus: Stated activity against Trichomonas foetus.
The subject of a further assay is Entamoeba histolytica. The assay can be described thus: Stated activity against Entamoeba histolytica.
Assay [1] relates to Histomonas meleagridis. In words: Stated activity against Histomonas meleagridis.
A further assay has as its system Syphacia obvelata. In words: Stated anthelmintic activity against pinworms such as Syphacia obvelata.
The next assay deals with bacteria. The following applies: cited from earlier work.
In assay [2] the test system is Histomonas meleagridis. In words: Prophylactic activity in turkeys against Histomonas meleagridis. The class given is in vivo. The following applies: turkeys inoculated orally with 500 Heterakis gallinae ova. The protocol:
Gentamicin A was administered to groups of turkeys at dosage levels of 5, 10, and 15 mg. per turkey per day in aqueous solution. Two days after the initiation of the drug, the turkeys were inoculated orally with 500 Heterakis gallinae ova (the intermediate host carrier of Histomonas). A single group of turkeys received 0.035% of gentamicin A in their feed for six days. Untreated infected controls were also carried in each experiment. The test is continued for twelve days and the birds are autopsied on the thirteenth day. Infection is usually manifested principally in two areas, the cecum and the liver which are the areas examined during the autopsy.

The subject of assay [3] is Trichomonas vaginalis. In words: In vitro activity against Trichomonas vaginalis. Type of assay: cell-based. The following applies: Trichomonas vaginalis; for MIC: read-out: Minimal 99% Suppression Level; for MBC: read-out: Minimal Cidal Level. The text has this: In Table VI below is set forth the in vitro activity of the compounds of this invention against T. vaginalis. The test procedure used was substantially as described by R. J. Schnitzer on pages 289-331 in Experimental Chemotherapy, Volume 1, Academic Press, New York (1963).

In assay [4] the test system is Trichomonas vaginalis. In words: Stated activity against Trichomonas vaginalis.

`CNC1C(O)COC(OC2C(N)CC(N)C(OC3OC(CO)C(O)C(O)C3N)C2O)C1O` (centres unmarked) [Gentamicin A]: the “antiprotozoal activity (in words)” value in the assay with Trichomonas foetus, with Entamoeba histolytica, in the assay on Histomonas meleagridis [1] and in the assay with Trichomonas vaginalis [4] was “effective” throughout. Moreover, the “anthelmintic activity (in words)” value in the assay on Syphacia obvelata is “effective”. Moreover, the “antibiotic activity (in words)” value with bacteria is recorded as “rather weak antibiotic activity”. In the assay with Histomonas meleagridis [2], the “minimum dosage level with prophylactic activity” value was 10 mg. per bird. Further, the MIC in the assay with Trichomonas vaginalis [3] (24 hours) was 10 µg/mL (≈ 21.3 µM); in the assay with Trichomonas vaginalis [3] (48 hours), 5 to 10 µg/mL (≈ 10.7 to 21.3 µM). In addition, the results for the MBC in the assay with Trichomonas vaginalis [3] (24 hours) and with Trichomonas vaginalis [3] (48 hours) were 25 µg/mL (≈ 53.4 µM) and 10 µg/mL (≈ 21.3 µM), respectively.
